Tested on: Desulfovibrio longus ATCC 51456
Assay: Biocidal efficacy (bacterial kill) and synergy of glutaraldehyde and surfactants against anaerobic sulfate-reducing bacteria
Assay type: cell-based
Conditions: 35° C., 10^6 to 10^7 CFU/mL, salt solution
Experimental: Surfactants and biocides were evaluated for synergy by determining the synergy index (S.I.) of the combination. Synergy index was calculated based on the concentration required to achieve a certain level of bacterial kill when the two antimicrobial compounds (A and B) alone and in combinations. The test organism was anaerobic sulfate-reducing bacteria Desulfovibrio longus ATCC #51456. Surf. A R^1O(CH2CH(CH3)O)5(CH2CH2O)6H Surf. B R^1O(CH2CH(CH3)O)5(CH2CH2O)9H where R^1 is 2-ethylhexyl.
Inside an anaerobic chamber (Bactron anaerobic chamber), a deoxygenated sterile salt solution (3.1183 g of NaCl, 1.3082 mg of NaHCO3, 47.70 mg of KCl, 72.00 mg of CaCl2, 54.49 mg of MgSO4, 172.28 mg of Na2SO4, 43.92 mg of Na2CO3 in 1 L water) was inoculated with Desulfovibrio longus ATCC 51456 to a final bacterial concentration of 10^6 to 10^7 CFU/mL. Aliquots of this cell suspension were then treated with glutaraldehyde, and each of Surf A and B at selected active concentrations. After incubation at 35° C. for 2 hours, viable bacteria in the aliquots were enumerated using serial dilution method.
SI is calculated as follows: Ca/CA+Cb/CB=Synergy Index (“SI”)
Wherein: • Ca=Concentration of biocide A required to achieve a certain level of bacterial kill when used in combination with B • CA=Concentration of biocide A required to achieve a certain level of bacterial kill when used alone • Cb=Concentration of biocide B required to achieve a certain level of bacterial kill when used in combination with A • CB=Concentration of biocide B required to achieve a certain level of bacterial kill when used alone When the sum of Ca/CA and Cb/CB is greater than one, antagonism is indicated.

## O=CCCCC=O [Glut, glutaraldehyde, (1,5-pentanedial) CAS No. 111-30-8]
Glut concentration alone (1:0) or in combination with Surf. A
  Concentration (active ppm) for complete bacterial kill in 2 hours, Glut: 13.2 ppm
Glut concentration alone (1:0) or in combination with Surf. B
  Concentration (active ppm) for 99.99% bacterial kill in 2 hours, Glut: 5.9 ppm

## R^1O(CH2CH(CH3)O)5(CH2CH2O)6H where R^1 is 2-ethylhexyl [Surf. A]
Surf. A concentration alone (0:1) or in combination with Glut
  Concentration (active ppm) for complete bacterial kill in 2 hours, Surf. A: >100 ppm

## R^1O(CH2CH(CH3)O)5(CH2CH2O)9H where R^1 is 2-ethylhexyl [Surf. B]
Surf. B concentration alone (0:1) or in combination with Glut
  Concentration (active ppm) for 99.99% bacterial kill in 2 hours, Surf B: >100 ppm
